Test [1] has as its system HCT116 colorectal carcinoma cell line. Description: Tetrazolium dye proliferation assay (MTT assay). Conditions: Homo sapiens, HCT-116, HCT116 cells. Format: cell-based. The procedure:
Proliferation was evaluated by the tetrazolium dye assay according to the procedure of Denizot and Lang (Denizot, F. and Lang, R. J Immunol Methods 1986, 89, 271-277). The cell line used was HCT116, a colorectal carcinoma cell line obtained from the American Type Cell Culture Collection (ATCC; Rockville, Md.). The cells were grown in McCoy's 5A medium supplemented with 10% FCS and L-glutamine.
Cells were plated at the appropriate seeding density to give logarithmic growth over the course of the assay in a 96-well tissue culture plate. Plates were incubated overnight at 37° C. in a humidified incubator with 5% CO2. The next day, test compounds were serially diluted to four times the final concentration in the appropriate medium containing 1.2% DMSO. One-fourth final volume of each dilution was added in duplicate to the plates containing cells. The same volume of 1.2% DMSO in medium was added to a row of “control wells” such that the final concentration of DMSO in each well was 0.3%. Wells to which no cells were added served as the “blank.” Wells to which no inhibitor was added served as “no inhibitor control.” The plates were) returned to the incubator, and at set time points (determined by their growth curves) plates were analyzed as described below.
3-(4,5-dimethylthiazole-2-yl)-2,5-diphenyl-2H-tetrazolium bromide (thiazolyl blue; MTT; Sigma) was added to each well to yield a final concentration of 1 mg/ml. Plates were returned to the incubator for 2.5-3 hours at 37° C. The MTT-containing medium was removed and the resulting formazan metabolite was solubilized in 100% ethanol with shaking for 15 minutes at room temperature. Absorbance readings were taken in a microtiter plate reader (Dynatech and Molecular Devices plate readers were used interchangeably) at a wavelength of 570 nm with a 650 nm reference. Percent inhibition (% INH) is calculated by subtracting the absorbance of the blank well from all wells, then subtracting the ratio of the average absorbance of each test duplicate (SAVE) by the average of the controls (CAVE) from 1.00. The final number is then multiplied by 100 (% INH=(1.00−SAVE/CAVE)×100). The concentration at which 50% inhibition of cell proliferation is obtained (the IC50) is determined from the linear regression of a plot of the logarithm of the concentration versus percent inhibition.

A further test concerns the target human cyclin D1-CDK4 (Homo sapiens, UniProt P11802). Put plainly: CDK4 HTRF kinase assay (Ki measurement). In kind it is biochemical. Conditions: ATP at 3x Km. The procedure: To determine inhibition of Cdk4, Cdk2 and Cdk1 activity, kinase assays were conducted using FlashPlateTM assays (NENTM-Life Science Products). […] W. Harper at the Baylor College of Medicine, Houston, Tex. Proteins were co-expressed in High FiveTM insect cells and the complex was purified on glutathione Sepharose resin (Pharmacia, Piscataway, N.J.) as previously described (Harper, J. W. et al. Cell 1993, 75, 805-816). A 6×-Histidine tagged […]) was used as the substrate for the cycD1-CDK4, cycB-CDK1 and the cycE-CDK2 assays (the expression plasmid was provided by Dr. Veronica Sullivan, Department of Molecular Virology, Roche Research Centre, Welwyn Garden City, United Kingdom). The Rb protein is a natural substrate for phosphorylation by CDK4, CDK2 and CDK1 (see Herwig and Strauss Eur. J. Biochem. Vol. 246 (1997) pp. 581-601 and the references cited therein). Alternatively, inhibition activity may be measured using Ki. Using the protein constructs described above in Example 19A above, CDK1, CDK2, and CDK4 HTRF assays were set up. These were done in 96-well format and read in 384-well plate format. The assays were run at 3× their respective Kms for ATP. In the CDK4 assay, test compounds were diluted to 3× their final concentrations in 25 mM Hepes, pH 7.0, 6.25 mM MgCl2, 1.5 mM DTT, 135 μM ATP. The DMSO concentration was no greater than 4.76%. Twenty microliters were added to the wells of a 96-well plate. The kinase reaction was initiated by the addition of 40 μl/well of a solution containing 0.185 μM Rb and 2.25 μg/ml CDK4 in 25 mM Hepes, pH 7.0, 6.25 mM MgCl2, 0.003% Tween-20, 0.3 mg/ml BSA, 1.5 mM DTT. Blank wells without CDK4 were included. The plates were incubated at 37° C. for 30 minutes with shaking. The kinase reaction was terminated by the addition of 15 μl/well of 1.6 uM anti-phospho-Rb ([…]) antibody (Cell Signaling Inc.) in 25 mM Hepes, pH 7.0, 24 mM EDTA, 0.2 mg/ml BSA. After 30 minutes at 37° C., 15 μl/well of 3 nM Lance-Eu-W1024 labeled anti-rabbit IgG and 60 nM Allophycocyanin conjugated anti-His6 (PerkinElmer Life Sciences) in 25 mM Hepes, pH 7.0, 0.5 mg/ml BSA were added. Following a one hour incubation at 37 deg C., 35 μl of each well, in duplicate, were transferred to 384-well black plates. The plates were read using either ViewLux or Victor V readers (PerkinElmer Life Sciences) using an excitation wavelength of 340 nm and dual emission wavelengths of 615 nm and 665 nm. IC50 values (the concentration of test compounds reducing the assay control fluorescence read-out by 50%) were first calculated from net readings at 665 nm, normalized for europium readings at 615 nm. For ATP competitive inhibitors, the Ki values were calculated according to the following equation: […]

For a further test, the target named is human cyclin B-CDK1 (Homo sapiens, UniProt P06493). Description: CDK1 HTRF kinase assay (Ki measurement). In kind it is biochemical. To be noted: ATP at 3x Km. Here is the method: (§1) To determine inhibition of Cdk4, Cdk2 and Cdk1 activity, kinase assays were conducted using FlashPlate™ assays (NEN™-Life Science Products). FlashPlate assays were performed using recombinant human cyclin B-CDK1, human cyclin E-CDK2 or human cyclin D1-CDK4 complexes. GST-cyclinE (GST-cycE), CDK2, GST-cyclinB (GST-cycB), CDK1, GST-CDK4 and cyclin D1 (cycD1) cDNA clones in baculovirus vectors were provided by Dr. W. Harper at the Baylor College of Medicine, Houston, Tex.
(§2) Alternatively, inhibition activity may be measured using Ki. […] These were done in 96-well format and read in 384-well plate format. The assays were run at 3× their respective Kms for ATP.
Twenty microliters were added to the wells of a 96-well plate. […] Blank wells without CDK4 were included. The plates were incubated at 37° C. for 30 minutes with shaking. […] After 30 minutes at 37° C., 15 μl/well of 3 nM Lance-Eu-W1024 labeled anti-rabbit IgG and 60 nM Allophycocyanin conjugated anti-His6 (PerkinElmer Life Sciences) in 25 mM Hepes, pH 7.0, 0.5 mg/ml BSA were added. Following a one hour incubation at 37 deg C., 35 μl of each well, in duplicate, were transferred to 384-well black plates. The plates were read using either ViewLux or Victor V readers (PerkinElmer Life Sciences) using an excitation wavelength of 340 nm and dual emission wavelengths of 615 nm and 665 nm. […] For ATP competitive inhibitors, the Ki values were calculated according to the following equation: Ki=IC50/(1+S/Km) where S refers to the substrate concentration and Km refers to the Michaelis-Menten constant.
(§3) The CDK1 and CDK2 assays were similarly run except for small differences in reagent and protein concentrations:
The compound and enzyme buffers for both assays contained 10 mM MgCl2. […] CDK1 at a reagent concentration of 0.15 ng/ul and CDK2 at a reagent concentration of 0.06 ng/ul were used.

For the next test, the target named is human cyclin E-CDK2 (Homo sapiens, UniProt P24941). Description: CDK2 HTRF kinase assay (Ki measurement). In kind it is biochemical. Conditions: HTRF assay, ATP at 3x Km; read-out: Ki CDK2. The procedure: as §1, §2
Twenty microliters were added to the wells of a 96-well plate. […] Blank wells without CDK4 were included. The plates were incubated at 37° C. for 30 minutes with shaking. […] After 30 minutes at 37° C., 15 μl/well of 3 nM Lance-Eu-W1024 labeled anti-rabbit IgG and 60 nM Allophycocyanin conjugated anti-His6 (PerkinElmer Life Sciences) in 25 mM Hepes, pH 7.0, 0.5 mg/ml BSA were added. Following a one hour incubation at 37 deg C., 35 μl of each well, in duplicate, were transferred to 384-well black plates. The plates were read using either ViewLux or Victor V readers (PerkinElmer Life Sciences) using an excitation wavelength of 340 nm and dual emission wavelengths of 615 nm and 665 nm.
as §3
The compound and enzyme buffers for both assays contained 10 mM MgCl2.

Chain of human cyclin B-CDK1 (P06493 whole entry): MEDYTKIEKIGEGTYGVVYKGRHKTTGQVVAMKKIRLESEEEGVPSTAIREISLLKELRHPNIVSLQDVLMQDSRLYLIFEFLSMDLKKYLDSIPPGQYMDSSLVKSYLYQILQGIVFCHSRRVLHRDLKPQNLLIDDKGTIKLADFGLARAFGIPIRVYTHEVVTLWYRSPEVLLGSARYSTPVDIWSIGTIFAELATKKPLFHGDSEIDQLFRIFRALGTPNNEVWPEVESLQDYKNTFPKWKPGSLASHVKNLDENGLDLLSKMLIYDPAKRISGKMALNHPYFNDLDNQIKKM
Chain of human cyclin B-CDK1 (P14635 whole entry partner): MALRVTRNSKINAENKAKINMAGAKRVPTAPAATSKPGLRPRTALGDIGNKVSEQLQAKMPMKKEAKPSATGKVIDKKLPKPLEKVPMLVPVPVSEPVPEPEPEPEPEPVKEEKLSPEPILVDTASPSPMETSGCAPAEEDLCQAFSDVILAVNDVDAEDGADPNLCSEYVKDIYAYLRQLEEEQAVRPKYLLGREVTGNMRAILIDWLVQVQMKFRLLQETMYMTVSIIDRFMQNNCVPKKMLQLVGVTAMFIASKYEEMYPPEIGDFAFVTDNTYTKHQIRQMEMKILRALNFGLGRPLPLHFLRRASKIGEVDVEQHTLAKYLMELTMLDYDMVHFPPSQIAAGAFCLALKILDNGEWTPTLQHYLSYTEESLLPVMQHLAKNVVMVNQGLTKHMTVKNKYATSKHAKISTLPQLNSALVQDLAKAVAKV
Chain of human cyclin D1-CDK4 (P11802 whole entry): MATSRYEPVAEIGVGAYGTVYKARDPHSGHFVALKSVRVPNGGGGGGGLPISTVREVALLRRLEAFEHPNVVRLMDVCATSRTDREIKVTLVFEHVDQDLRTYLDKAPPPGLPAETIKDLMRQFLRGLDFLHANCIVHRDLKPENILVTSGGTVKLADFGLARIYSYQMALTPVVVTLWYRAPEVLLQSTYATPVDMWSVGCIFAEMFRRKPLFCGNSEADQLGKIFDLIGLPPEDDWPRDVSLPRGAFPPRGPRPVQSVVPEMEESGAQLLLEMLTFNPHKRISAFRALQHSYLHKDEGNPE
Chain of human cyclin D1-CDK4 (P24385 whole entry partner): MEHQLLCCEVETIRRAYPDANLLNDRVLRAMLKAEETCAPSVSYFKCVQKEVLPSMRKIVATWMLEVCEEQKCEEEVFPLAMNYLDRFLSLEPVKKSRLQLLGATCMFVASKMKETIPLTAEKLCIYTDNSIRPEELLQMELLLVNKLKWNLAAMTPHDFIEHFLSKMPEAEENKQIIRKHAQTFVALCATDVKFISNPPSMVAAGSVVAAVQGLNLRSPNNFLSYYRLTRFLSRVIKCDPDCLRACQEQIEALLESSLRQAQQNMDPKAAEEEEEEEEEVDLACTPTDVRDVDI

`COc1ccc(F)c(F)c1C(=S)c1cnc(NC2CCN(S(C)(=O)=O)CC2)nc1N` [Example 1, [4-Amino-2-(1-methanesulfonyl-piperidin-4-ylamino)-pyrimidin-5-yl]-(2,3-difluoro-6-methoxy-phenyl)-methanethione] registered an IC50 in test [1] of 20 nM. Moreover, the figures for the Ki at human cyclin D1-CDK4 and at human cyclin B-CDK1 were 0.17 nM and 0.13 nM, respectively.

`COc1ccc(F)c(F)c1C(=S)c1cnc(N[C@H]2CC[C@H](NS(C)(=O)=O)CC2)nc1N` [Example 2, N-{4-[4-Amino-5-(2,3-difluoro-6-methoxy-thiobenzoyl)-pyrimidin-2-ylamino]-cyclohexyl}methanesulfonamide] came in with an IC50 in test [1] of 12 nM. The Ki is 0.6 nM at human cyclin D1-CDK4, 0.18 nM at human cyclin E-CDK2 and 0.27 nM on human cyclin B-CDK1.

On to `CS(=O)(=O)N1CCC(Nc2ncc(C(=S)c3c(F)c(F)cc4ncoc34)c(N)n2)CC1` [Example 7, [4-Amino-2-(1-methanesulfonyl-piperidin-4-ylamino)-pyrimidin-5-yl]-(5,6-difluoro-benzooxazol-7-yl)-methanethione], for which the Ki on human cyclin D1-CDK4 came to 5 nM; on human cyclin E-CDK2 it was 16 nM; at human cyclin B-CDK1, 6 nM.

Consider `COc1ccc(F)cc1C(=S)c1cnc(NCCCNS(C)(=O)=O)nc1N` [Example 8, N-{3-[4-Amino-5-(5-fluoro-2-methoxy-thiobenzoyl)-pyrimidin-2-ylamino]-propyl}-methanesulfonamide], for which the Ki at human cyclin D1-CDK4 is 37 nM; on human cyclin E-CDK2, 65 nM; at human cyclin B-CDK1, 89 nM.

Take `COc1ccc(F)c(F)c1C(=S)c1cnc(NC2CCN(S(=O)(=O)CCCN3CCOCC3)CC2)nc1N` [Example 9, {4-Amino-2-[1-(3-morpholin-4-yl-propane-1-sulfonyl)-piperidin-4-ylamino]-pyrimidin-5-yl}(2,3-difluoro-6-methoxy-phenyl)-methanethione]: the Ki on human cyclin E-CDK2 is 1 nM; at human cyclin B-CDK1, 14 nM.

Regarding `COc1ccc(F)c(F)c1C(=S)c1cnc(NC2CCN(S(=O)(=O)c3ccccn3)CC2)nc1N` [Example 10, {4-Amino-2-[1-(pyridine-2-sulfonyl)-piperidin-4-ylamino]-pyrimidin-5-yl}-(2,3-difluoro-6-methoxy-phenyl)-methanethione], the Ki was 1 nM at human cyclin E-CDK2 and 3 nM at human cyclin B-CDK1.

As for `CS(=O)(=O)N1CCC(Nc2ncc(C(=S)c3cccs3)c(N)n2)CC1` [Example 11, [4-Amino-2-(1-methanesulfonyl-piperidin-4-ylamino)-pyrimidin-5-yl]-thiophen-2-yl-methanethione], the Ki at human cyclin D1-CDK4 amounted to 10 nM; on human cyclin E-CDK2, 12 nM; on human cyclin B-CDK1 it was 43 nM.

Take `COc1ccc(F)c(F)c1C(=S)c1cnc(Nc2ccc(S(C)(=O)=O)cc2)nc1N` [Example 12, [4-Amino-2-(4-methanesulfonyl-phenylamino)-pyrimidin-5-yl]-(2,3-difluoro-6-methoxy-phenyl)-methanethione]: the Ki worked out at 7 nM on human cyclin D1-CDK4, 1 nM on human cyclin E-CDK2 and 3 nM at human cyclin B-CDK1.

For the compound `CS(=O)(=O)N1CCC(Nc2ncc(C(=S)c3ccccc3)c(N)n2)CC1` [Example 16, [4-Amino-2-(1-methanesulfonyl-piperidin-4-ylamino)-pyrimidin-5-yl]-phenyl-methanethione], the results for the Ki at human cyclin D1-CDK4, on human cyclin E-CDK2 and at human cyclin B-CDK1 were 15 nM, 10 nM and 27 nM, respectively.

Regarding `COc1ccc(F)cc1C(=S)c1cnc(NC2CCN(C(=O)OC(C)(C)C)CC2)nc1N` [Example 17, 4-[4-Amino-5-(5-fluoro-2-methoxy-thiobenzoyl)-pyrimidin-2-ylamino]-piperidine-1-carboxylic acid tert-butyl ester], the Ki on human cyclin E-CDK2 was found to be 195 nM; on human cyclin B-CDK1 it was 261 nM.

For `COc1ccc(F)c(F)c1C(=S)c1cnc(NC2CCN(S(C)(=O)=O)C2)nc1N` (stereo not drawn) [Example 18, [4-Amino-2-(1-methanesulfonyl-pyrrolidin-3-ylamino)-pyrimidin-5-yl]-(2,3-difluoro-6-methoxy-phenyl)-methanethione], the Ki on human cyclin D1-CDK4 was 2.8 nM; on human cyclin E-CDK2, 1 nM.

The values above are taken from patent publication US7705009B2, “4-aminopyrimidine-5-thione derivatives” (Hoffman-La Roche Inc., priority 2005, dated 2010).
